Results reported in patent publication US20220378821A1, “METHODS OF TREATING BRAF-MUTATED CANCER CELLS” (EFFECTOR THERAPEUTICS, INC., priority 2019, published 2022).
Like-named read-outs stand apart in the source and are kept apart here.

Assays:
[1] = system: panel of 100 tumor cell lines; experiment: OncoPanel cell proliferation profiling (nuclear dye relative cell count); type: cell-based; settings: for IC50: across the panel of 100 cell lines
Description: (§1) In order to assess cellular phenotypes arising from eIF4E inhibition, Compound X was profiled in a panel of 100 tumor cell lines. Compound X was profiled using the OncoPanel Cell-Based Profiling Service (Eurofins Pharma Discovery Services, St. Charles, Mo.). Briefly, cell lines used in the panel were grown in RPMI 1640, 10% FBS, 2 mM L-alanyl-L-glutamine, 1 mM Na pyruvate, or a special medium. Cells were seeded into 384-well plates and incubated in a humidified atmosphere of 5% CO2 at 37° C. Compounds were added the day following cell seeding. At the same time, a time zero untreated cell plate was generated. After a 3-day incubation period, cells were fixed and stained with fluorescently-labeled antibodies and nuclear dye to allow imaging of nuclei, apoptotic cells and mitotic cells.
(§2) was serially diluted in half-log steps from 10 μM and assayed over 10 concentrations with a maximum assay concentration of 0.1% DMSO. Automated fluorescence microscopy was carried out using a Molecular Devices ImageXpress Micro XL high-content imager, and images were collected with a 4× objective. 16-bit TIFF images were acquired and analyzed with MetaXpress 5.1.0.41 software.
Cell proliferation was measured by the fluorescence intensity of an incorporated nuclear dye. The output is referred to as the relative cell count, where the measured nuclear intensity is transformed to percent of control (POC) using the following formula: […]
where Ix the nuclear intensity at concentration x, and I0 is the average nuclear intensity of the untreated vehicle wells.
Cellular response parameters were calculated using nonlinear regression to a sigmoidal single-site dose response model:
where y is a response measured at concentration x, A and B are the lower and upper limits of the response, C is the concentration at the response midpoint (EC50), and D is the Hill Slope (Fallahi-Sichani et al., 2013, Nat. Chem. Biol. 9:708-714).
Cell count IC50 is the test compound concentration at 50% of maximal possible response.

[2] = system: panel of 100 tumor cell lines; experiment: OncoPanel apoptosis profiling (activated caspase-3); type: cell-based
Description: as §1, §2
An antibody to activated caspase-3 was used to label cells from early to late stage apoptosis (Thornberry et al., 1998, Science 281:1312-1316). […] A 5-fold induction in the caspase-3 signal was scored as a significant apoptosis induction.

[3] = system: COLO 205 xenografts (BRAF mutant); experiment: In vivo tumor growth inhibition, COLO 205 xenografts; settings: for tumor growth inhibition (TGI): COLO 205 xenografts
Description: To test whether eIF4E inhibition affected the growth of BRAF mutant tumors in vivo, COLO 205 cells were grown as tumor xenografts in athymic nude mice and animals were dosed daily with vehicle or Compound Y, having the following structure
(§3) Athymic nude mice were purchased from Simonsen Laboratories (Gilroy, Calif.). C.B-17 SCID mice were purchased from Charles River (Hollister, Calif.). All animal studies were carried out in accordance with the guidelines established by the Institutional Animal Care and Use Committee at Explora BioLabs (San Diego, Calif.). COLO 205 and RKO cells were purchased from ATCC (Manassas, Va.). COLO 205 cells were maintained in RPMI-1640 supplemented with 10% fetal bovine serum. RKO cells were maintained in DMEM supplemented with 10% fetal bovine serum. For COLO 205 xenograft studies, COLO 205 (2×10^6) cells were implanted subcutaneously into athymic nude mice. On day 8 post-implant, tumors were measured (˜103 mm^3) and tumor-bearing animals were randomized into treatment groups. For RKO xenograft studies, RKO cells (5×10^6) were implanted subcutaneously into C.B-17 SCID mice. On day 11 post-implant, tumors were measured (˜153 mm^3) and tumor-bearing animals were randomized into treatment groups. Animals were dosed orally with vehicle or Compound Y daily. Tumor size and body weight were monitored during the course of the study. Tumor size was measured in length and width with a caliper 2× per week. The tumor volume was calculated by the formula L×W×W/2 according to NCI standards.

[4] = system: RKO xenografts (BRAF mutant); experiment: In vivo tumor growth inhibition, RKO xenografts
Description: as §3

Row | IC50 ([1]; 72 h, 3-day incubation, read-out: median IC50 value for cell proliferation) | IC50 ([1]; upper end printed as >10,000 nM, read-out: distribution of IC50 values for cell proliferation) | cell lines tested with IC50 values below the median ([1]; hematological, head and neck, NSCLC, melanoma, uterine and pancreatic tumor cell lines) | Compound | BRAF mutant cell lines among those with significant induction of apoptosis ([2]; of the 36 cell lines with >5-fold activated caspase-3) | cell lines that showed significant induction of apoptosis (>5-fold induction of activated caspase-3) ([2]; of the panel of 100 cell lines) | tolerability (body weight) ([3]; COLO 205 study, no significant changes in body weight) | tumor growth inhibition (TGI) ([3]; 3 mg/kg orally daily) | tumor growth inhibition (TGI) ([3]; 30 mg/kg orally daily) | tolerability (body weight) ([4]; RKO study, no significant changes in body weight) | tumor growth inhibition (TGI) ([4]; RKO xenografts, 30 mg/kg orally daily)
1 | 116 nM | 12 to 10000 nM | > 74% | Cc1cc(-c2cc(Cl)ccc2OCCn2c(C)nc3cc(C(F)(F)F)c(CN4CCN(C)CC4)c(C#N)c3c2=O)c2scc(C(=O)O)c2n1 [Compound X] | 10 | 36 | – | – | – | – | –
2 | – | – | – | Cc1cc(-c2cc(Cl)ccc2OCCn2c(C)nc3cc(C(F)(F)F)c(N4CCN(C)CC4)c(C#N)c3c2=O)c2scc(C(=O)O)c2n1 [Compound Y] | – | – | well tolerated | 49% | 89% | well tolerated | 54%
